Tests used:
[1] = molecular target: T1, Heat shock protein HSP90 (Homo sapiens) (UniProt P07900+P08238); test: Inhibition of HSP90 in human MCF7 cells assessed as induction of apoptosis by measuring late apototic cells at 5 uM measured after 24 hrs by annexinV-FITC/propidium iodide staining based flow cytometry (reference value: 7.91 %); format: cell-based; parameters: scale not given: the % may be the effect or the level left
[2] = molecular target: T1, Heat shock protein HSP90 (Homo sapiens); test: Inhibition of HSP90 in human MCF7 cells assessed as induction of morphological changes by measuring apoptotic body formation at 2.5 to 10 uM by acridine orange/ethidium bromide staining based fluorescence microscopy analysis; format: cell-based; conditions: dose microM 2.5-10
[3] = molecular target: T1, Heat shock protein HSP90 (Homo sapiens); test: Inhibition of HSP90 in human MCF7 cells assessed as induction of mitochondrial membrane potential loss by measuring cell population with mitochondrial membrane potential collapse at 2.5 to 10 microM after 24 hrs by JC1 staining-based flow cytometry analysis; conditions: dose microM 2.5-10, time 24.0 hrs
[4] = molecular target: T1, Heat shock protein HSP90 (Homo sapiens); test: Inhibition of HSP90 in human MCF7 cells assessed as cell cycle arrest by measuring accumulation at Sub-G1 phase at 5 uM measured after 24 hrs by RNaseA/propidium iodide staining based flow cytometric analysis (reference value: 3.75 %); parameters: scale not given: the % may be the effect or the level left
[5] = molecular target: T1, Heat shock protein HSP90 (Homo sapiens); test: Inhibition of HSP90 in human MCF7 cells assessed as cell cycle arrest by measuring accumulation at G2/M phase at 10 uM measured after 24 hrs by RNaseA/propidium iodide staining based flow cytometric analysis (reference value: 25.08 %); parameters: scale not given: the % may be the effect or the level left
[6] = molecular target: T1, Heat shock protein HSP90 (Homo sapiens); test: Inhibition of HSP90 in human MCF7 cells assessed as increase in ROS generation by measuring fluorescence intensity at 2.5 to 10 uM after 24 hrs by DCFDA staining based flow cytometry; format: cell-based; conditions: dose microM 2.5-10, time 24.0 hrs
[7] = molecular target: T1, Heat shock protein HSP90 (Homo sapiens); test: Inhibition of HSP90 in human MCF7 cells assessed as induction of apoptosis by measuring total apoptotic and dead cell population at 0.5 to 4 uM measured after 24 hrs by annexinV-FITC/propidium iodide staining based flow cytometry; conditions: dose microM 0.5-4, time 24.0 hrs
[8] = molecular target: T1, Heat shock protein HSP90 (Homo sapiens); test: Inhibition of HSP90 in human MCF7 cells assessed as induction of mitochondrial membrane potential loss by measuring cell population with intact mitochondrial membrane potential at 2.5 uM after 24 hrs by JC1 staining-based flow cytometry analysis (reference value: 92.39 %); parameters: scale not given: the % may be the effect or the level left
[9] = molecular target: T1, Heat shock protein HSP90 (Homo sapiens); test: Inhibition of HSP90 in human MCF7 cells assessed as cell cycle arrest by measuring accumulation at S phase at 2.5 uM measured after 24 hrs by RNaseA/propidium iodide staining based flow cytometric analysis (reference value: 7.08 %); parameters: scale not given: the % may be the effect or the level left
[10] = molecular target: T1, Heat shock protein HSP90 (Homo sapiens); test: Inhibition of HSP90 in human MCF7 cells assessed as induction of mitochondrial membrane potential loss by measuring cell population with mitochondrial membrane potential collapse at 2.5 uM after 24 hrs by JC1 staining-based flow cytometry analysis (reference value: 6.53 %); parameters: scale not given: the % may be the effect or the level left
[11] = molecular target: T1, Heat shock protein HSP90 (Homo sapiens); test: Inhibition of HSP90 in human MCF7 cells assessed as induction of apoptosis by measuring total apoptotic and dead cell population at 4 uM measured after 24 hrs by annexinV-FITC/propidium iodide staining based flow cytometry (reference value: 9.23 %); parameters: scale not given: the % may be the effect or the level left
[12] = molecular target: T1, Heat shock protein HSP90 (Homo sapiens); test: Inhibition of HSP90 in human MCF7 cells assessed as induction of apoptosis by measuring early apototic cells at 2.5 uM measured after 24 hrs by annexinV-FITC/propidium iodide staining based flow cytometry (reference value: 1.31 %); format: cell-based; parameters: scale not given: the % may be the effect or the level left
[13] = molecular target: T1, Heat shock protein HSP90 (Homo sapiens); test: Inhibition of HSP90 in human MCF7 cells assessed as cell cycle arrest by measuring accumulation at G2/M phase at 2.5 uM measured after 24 hrs by RNaseA/propidium iodide staining based flow cytometric analysis (reference value: 25.08 %); parameters: scale not given: the % may be the effect or the level left
[14] = molecular target: T1, Heat shock protein HSP90 (Homo sapiens); test: Inhibition of HSP90 in human MCF7 cells assessed as induction of nuclear morphological changes by measuring nuclear fragmentation at 2.5 to 10 uM by DAPI staining based fluorescence microscopy analysis; format: cell-based; conditions: dose microM 2.5-10
[15] = molecular target: T1, Heat shock protein HSP90 (Homo sapiens); test: Inhibition of HSP90 in human MCF7 cells assessed as induction of apoptosis by measuring total apoptotic and dead cell population at 0.5 uM measured after 24 hrs by annexinV-FITC/propidium iodide staining based flow cytometry (reference value: 9.23 %); parameters: scale not given: the % may be the effect or the level left
[16] = molecular target: T1, Heat shock protein HSP90 (Homo sapiens); test: Inhibition of HSP90 in human MCF7 cells assessed as cell cycle arrest by measuring accumulation at Sub-G1 phase at 10 uM measured after 24 hrs by RNaseA/propidium iodide staining based flow cytometric analysis (reference value: 3.75 %); parameters: scale not given: the % may be the effect or the level left
[17] = molecular target: T1, Heat shock protein HSP90 (Homo sapiens); test: Inhibition of HSP90 in human MCF7 cells assessed as induction of mitochondrial membrane potential loss by measuring cell population with intact mitochondrial membrane potential at 5 uM after 24 hrs by JC1 staining-based flow cytometry analysis (reference value: 92.39 %); parameters: scale not given: the % may be the effect or the level left
[18] = molecular target: T1, Heat shock protein HSP90 (Homo sapiens); test: Inhibition of HSP90 in human MCF7 cells assessed as induction of mitochondrial membrane potential loss by measuring cell population with mitochondrial membrane potential collapse at 5 uM after 24 hrs by JC1 staining-based flow cytometry analysis (reference value: 6.53 %); parameters: scale not given: the % may be the effect or the level left
[19] = molecular target: T1, Heat shock protein HSP90 (Homo sapiens); test: Inhibition of HSP90 in human MCF7 cells assessed as induction of morphological changes by measuring membrane blebbing at 2.5 to 10 uM by acridine orange/ethidium bromide staining based fluorescence microscopy analysis; format: cell-based; conditions: dose microM 2.5-10
[20] = molecular target: T1, Heat shock protein HSP90 (Homo sapiens); test: Inhibition of HSP90 in human MCF7 cells assessed as cell cycle arrest by measuring accumulation at G0/G1 phase at 10 uM measured after 24 hrs by RNaseA/propidium iodide staining based flow cytometric analysis (reference value: 39.10 %); parameters: scale not given: the % may be the effect or the level left

Nc1nc(-c2ccc(Br)cc2)cc(-c2cn(-c3ccc(Cl)cc3)nc2-c2ccc([N+](=O)[O-])cc2)n1
Activity [1]: 18.6%
inhibition [2]: Dose-dependent effect
inhibition [3]: Dose-dependent effect
Activity [4]: 16.7%
Activity [5]: 20.1%
inhibition [6]: Dose-dependent effect
inhibition [7]: Dose-dependent effect
Activity [8]: 85.4%
Activity [9]: 7.74%
Activity [10]: 12.7%
Activity [11]: 34.7%
Activity [12]: 1.94%
Activity [13]: 27.2%
inhibition [14]: Dose-dependent effect
Activity [15]: 12.1%
Activity [16]: 23.7%
Activity [17]: 75.3%
Activity [18]: 21.8%
inhibition [19]: Dose-dependent effect
Activity [20]: 25.2%

Source: ChEMBL document CHEMBL4725367, “Novel anticancer Hsp90 inhibitor disubstituted pyrazolyl 2-aminopyrimidine compound 7t induces cell cycle arrest and apoptosis via mitochondrial pathway in MCF-7 cells” (Bioorg Med Chem Lett, 2020)
